System: E710.2.3
Experiment: Homotypic aggregation assay

With Paraformaldehyde the “HOMOTYPIC ADHESION induced by DMF10.62.3 in presence of chemical” value was “inhibited”.

From US8444972B2, “Antitumor antibodies, proteins, and uses thereof” (University of Massachusetts, priority 1999, dated 2013)
